Measurements: ChEMBL document CHEMBL1201862, “PubChem BioAssay data set” (2004)
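Tested at 5 concentrations; 48 h exposure; 96-well plates; endpoints linearly interpolated, else capped at highest concentration. GI50 marks 50% less growth.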 Activity calls are given as the source filed them. No stated cut-off is given here; in the data, active = GI50 up to about 1.1 µM and inactive = higher.

How the values were obtained:
Assay in all cases: DTP human tumour cell line panel, 48 h
BT-549 = system: BT-549
DU-145 = system: DU-145
T47D = system: T47D
M19-MEL = system: M19-MEL
LXFL 529 = system: LXFL 529
DLD-1 = system: DLD-1
KM-20L2 = system: KM-20L2
SNB-78 = system: SNB-78
RXF 631 = system: RXF 631

Row | Structure (SMILES) | GI50 (BT-549) | GI50 (DU-145) | GI50 (T47D) | GI50 (M19-MEL) | GI50 (LXFL 529) | GI50 (DLD-1) | GI50 (KM-20L2) | GI50 (SNB-78) | GI50 (RXF 631)
1 | O=C(CSc1nc2ccccc2c2ccccc12)c1ccccc1 | > 100 µM (inactive) | > 100 µM (inactive) | > 100 µM (inactive) |  |  |  |  |  | 
2 | CC(=O)Nc1cc2c(cc1O)CC[C@@H]1[C@@H]2CC[C@]2(C)[C@@H](O)CC[C@@H]12 | 31.7 µM (inactive) |  | 30.3 µM (inactive) |  |  |  |  |  | 
3 | C=CCN1C(N)=C(C(N)=O)S/C1=C1/SC(=S)N(c2ccc(C)cc2)C1=O |  |  |  | > 100 µM (inactive) | > 100 µM (inactive) |  |  |  | 
4 | O=C1C=C[C@@H](COC2OC(CO)C(O)C(O)C2O)O1 (stereo partly specified) |  |  |  | 12.8 µM (inactive) |  | 3.35 µM (inactive) |  |  | 
5 | O=C1C[C@H](Sc2ccccc2)C2(OCCO2)[C@H]2ON3CCC[C@@H]3[C@@H]12 | 4.56 µM (inactive) | 2.61 µM (inactive) | 2.06 µM (inactive) |  |  |  |  |  | 
6 | CCCSc1ccc2[nH]c(N3C(=O)/C(=C/c4cc(OC)c(OC)c(OC)c4)N=C3c3ccccc3)cc2c1 | 10.8 µM (inactive) | 10.1 µM (inactive) | 11 µM (inactive) |  |  |  |  |  | 
7 | N#CC(NC12CC3CC(CC(C3)C1)C2)c1ccccc1C(F)(F)F (stereo unspecified) |  |  |  | > 100 µM (inactive) | > 100 µM (inactive) | > 100 µM (inactive) | > 100 µM (inactive) |  | 
8 | COc1ccc(CNc2nc3cc(C(F)(F)F)ccc3nc2C)cc1OC |  |  |  | 32.8 µM (inactive) | 35.8 µM (inactive) | 35.7 µM (inactive) | 44.1 µM (inactive) | 12.2 µM (inactive) | 
9 | O=c1ccc2ccc(S)cc2o1 | > 100 µM (inactive) | > 100 µM (inactive) | > 100 µM (inactive) |  |  |  |  |  | 
10 | Cn1cc(C(=O)/C(Cl)=C(\Cl)C(=O)O)c2ccccc21 |  |  |  | > 100 µM (inactive) |  | > 100 µM (inactive) | > 100 µM (inactive) | > 100 µM (inactive) | > 100 µM (inactive)
11 | O=C(c1ccc(Cl)cc1)N1CCN=C1c1cc2ccccc2c2ccccc12 | 19 µM (inactive) | 17.9 µM (inactive) | 19.1 µM (inactive) |  |  |  |  |  | 
12 | CC(C)OP(=O)(OC(C)C)/C(=N/Nc1ccc([N+](=O)[O-])cc1)NCCO |  |  |  | > 100 µM (inactive) | 38.4 µM (inactive) | > 100 µM (inactive) | 85.7 µM (inactive) | 99.8 µM (inactive) | 
13 | COc1cccc(N/C(C)=C2/CCOC2=O)c1 |  | > 10 µM (inactive) | > 10 µM (inactive) |  |  |  |  |  | 
14 | O=C(CCl)NC(Cc1ccc(F)cc1)C(=O)O (stereo unspecified) |  |  |  | > 100 µM (inactive) |  | > 88.9 µM (inactive) | > 100 µM (inactive) | > 100 µM (inactive) | 
15 | Cc1sc(Cc2ccccc2)nc1-c1ccc(N)cc1 | 28.2 µM (inactive) |  |  |  |  |  |  |  | 
16 | O=C(O)c1ccc([Se][Se]c2ccc(C(=O)O)cc2)cc1 |  |  |  | 19.5 µM (inactive) | 23 µM (inactive) | 34 µM (inactive) | 33 µM (inactive) | 18.7 µM (inactive) | 19 µM (inactive)
17 | NC1C=NNC1=O (stereo unspecified) |  |  |  |  | > 100 µM (inactive) | > 100 µM (inactive) | > 100 µM (inactive) | > 100 µM (inactive) | 
18 | Cc1c2ccnc(C(F)(F)F)c2cc2c1[nH]c1ccccc12 |  |  |  | > 125 µM (inactive) |  | > 125 µM (inactive) | > 125 µM (inactive) | 86.5 µM (inactive) | 
19 | COP(=O)(OC)C(N)CCSC (stereo unspecified) | > 100 µM (inactive) |  |  |  |  |  |  |  | 
20 | CS/C(=N\S(=O)(=O)c1ccc(Cl)cc1)NCCN/C(=N/S(=O)(=O)c1ccc(Cl)cc1)SC |  | > 100 µM (inactive) |  |  |  |  |  |  | 
21 | CCCn1c(CN(Cc2nc3ccccc3n2CCC)Cc2nc3ccccc3n2CCC)nc2ccccc21 | 5.71 µM (inactive) | 7.83 µM (inactive) | 2.55 µM (inactive) |  |  |  |  |  | 
22 | CC(O)C(O)C(N)CC=O (stereo unspecified) |  |  |  | > 500 µM (inactive) |  | > 500 µM (inactive) | > 500 µM (inactive) | > 482 µM (inactive) | 
23 | O=S1(=O)CS(=O)(=O)OCCCO1 |  | > 100 µM (inactive) | > 100 µM (inactive) |  |  |  |  |  | 
24 | CC1(C)CCCC2(C)[C@@H]1CC[C@]13C[C@](C)(CC[C@@H]21)[C@@H]3CO (stereo partly specified) |  |  |  | > 100 µM (inactive) | > 100 µM (inactive) | > 100 µM (inactive) | > 100 µM (inactive) | > 100 µM (inactive) | > 100 µM (inactive)
25 | C#C[C@]1(O)[C@@H](CO)O[C@@H](n2ccc(=O)[nH]c2=O)[C@@H]1O | 0.374 µM (active) | 0.0391 µM (active) | 0.0692 µM (active) |  |  |  |  |  | 
